The conditions of series [1]: mice; cited from earlier work.
The conditions of series [2]: humans; phase 1 clinical studies; cited from earlier work.
The test system of series [3] is E.G7 targets (lysis by CD8 T cells / CTLs). Kind of series: in vitro cytotoxicity of CTLs against OVA expressing E.G7 thymoma cells. Format: cell-based, mouse. The conditions noted are these: C57BL/6 CTLs; relative to Inh1; FIG. 12C. The text has this: FIG. 5A Illustrates that pharmacological inhibition of TCPTP and PTP1B results in enhanced cytotoxicity and effector differentiation. CD8 T cells from OT-1 mice were activated/expanded by αCD3/αCD28 antibodies and IL-2 in the presence of different concentrations of TCPTP/PTP1B inhibitor (Inh1) for 5 days. Specific cytotoxicity against OVA expressing E.G7 thymoma cells was measure.
FIG. 12C illustrates the specific cytotoxicity against OVA expressing E.G7 thymoma cells from 5-day C57BL/6 CTLs treated with Inh1 or Inh2 at the concentrations specified. (one of three experiments shown).
To understand the functional capabilities of the CD8 T cells with combined deficiency of TCPTP and PTP1B, the conditional mutant mice of Example 1 were bred with OT-1 transgenic mice. […] Effector CD8 T cells also contribute to the immune response by the secretion of cytokines as IFN-γ, consequently the presence of this cytokine in the supernatant of target cell stimulated CTLs by ELISA was measured. An increase of the secretion of IFN-γ was detected in TCPTP and PTP1B single deficient cells at low effector to target ratios which was more stepped in the […] cells (FIG. 3C). […]
As the differentiation state of CD8 T cells was altered in the various genotypes analyzed before, how treatment with Inh1 altered the expression of differentiation markers was determined by flow cytometric analysis (FIGS. 5D and 5E). […]

Consider one molecule from patent US20260315505A1, “COMBINED INHIBITION OF TYROSINE PHOSPHATASES TCPTP AND PTP1B AND PD-1 BLOCKAGE IMMUNOTHERAPY IN THE TREATMENT OF CANCER” (Kanyr Pharma Inc., priority 2022, published 2026).

Like-named read-outs stand apart in the source and are kept apart here.

Consider `N#CCc1ccc2cc(Br)c(C(F)(F)P(=O)(O)O)cc2c1` [Inh2], for which the systemic tolerability entry in series [1] and in series [2] was “tolerated systemically” each time. Further, the “concentration inducing similar biological activity to Inh1” value in series [3] came to 5 times lower.
